The values that follow come from PubChem BioAssay AID588620 (NMMLSC, 2011).

The source made the active and inactive calls.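 The calls were made as follows: active = fitted half-maximal concentration below 30 µM for cell fluorescence in pump-free yeast, so likely self-fluorescent; inactive = the rest.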

The nature of the test: concentration-dependent intrinsic compound fluorescence, S. cerevisiae AD/pABC3, flow cytometry, Cherry Pick1 hits, artefact control for antifungal efflux pump inhibitor project, dose response (AID 588620).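 Also: red emission of unstained cells excited at 488 nm measured in PE-Texas Red channel; cell median fluorescence as percent of DMSO wells so 100% equals vehicle baseline.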 The note with it: S. cerevisiae AD/pABC3 compound autofluorescence, flow cytometry; at 33.1 µM (top of the series). On the technique in general: In flow cytometry, cells or beads pass a laser one at a time.
On to `O=C(CSc1nnc(Cc2cccs2)n1Cc1ccco1)Nc1ccc(Br)cc1`, for which the fluorescence response, % of control is 86% (inactive).
With `C[C@@]12C(=O)Nc3ccc(F)cc3C(=O)N1[C@H]1c3cc(Cl)ccc3OC[C@@H]1[C@@H]2c1ccccc1`, the fluorescence response, % of control is 104% (inactive).
Turning to `NC1=NC[C@@H](Cc2ccc(O)cc2)N1CCCCC1CCCCC1`, the fluorescence response, % of control is 93.4% (inactive).
On to `CCC(=O)N1CCN(c2ccc(Cl)cc2NC(=O)c2ccc3c(c2)OCCO3)CC1`, for which the fluorescence response, % of control was 99.8% (inactive).
As for `COc1cccc(-c2sc3ccc(OC)cc3c2-c2ccc(OCCN3CCCC3)cc2)c1`, the figure is 112% (inactive); as for `O=C(COC(=O)c1c2ccccc2cc2ccccc12)Nc1ncc(C(F)(F)F)cc1Cl`, 96.4% (inactive).
As to `COc1ccc(OC)c(-c2nc(C(N)=O)c3[nH]c(=O)n(-c4ccc(F)cc4)c3n2)c1`, the fluorescence response, % of control was 104% (inactive).
Regarding `O=C(Nc1ccnc(-c2cccnc2)n1)c1cccc(Cl)c1Cl`, the fluorescence response, % of control is 104% (inactive).
With `O=C(c1ccoc1)N1CCC2(CC1)Oc1ccc(F)cc1C(=O)C21CC(c2ccc(Cl)cc2)=NO1` (stereo not drawn), the fluorescence response, % of control is 116% (inactive).
As for `Cc1cccc(C)c1-n1c(SCC(=O)N2CC(=O)Nc3ccccc32)nc2ccccc2c1=O`, the fluorescence response, % of control is 118% (inactive).
`COc1ccc2c(-c3ccc(OCCN4CCCCC4)cc3)c(-c3ccccc3OC)sc2c1`: the fluorescence response, % of control is 102% (inactive).
The figure for `COc1ccc(N2C(=O)CC(N3CCN(c4ccc(C(=O)c5cccnc5)cc4)CC3)C2=O)cc1` (stereo not drawn) is 88.6% (inactive); for `COc1ccc(/C=C/C(=O)Nc2cccc(S(=O)(=O)N3CCCC3)c2)cc1OC` it is 103% (inactive); for `CC(C)(C)c1ccc(-n2ncc3c2CCCC3NC(=O)c2cnccn2)cc1` (stereo not drawn) it is 90.8% (inactive).
With `O=C(CSc1nc2nc3c(cc2c(=O)n1-c1ccccc1)CCCC3)Nc1cccc2ccccc12`, the fluorescence response, % of control is 101% (inactive).
For `Cc1cccc(NC(=O)c2nc[nH]c2C(=O)N[C@H](C)c2ccccc2)c1`, the fluorescence response, % of control was 92.4% (inactive).
The figure for `Cc1ccccc1S(=O)(=O)Nc1nc2ccccc2nc1N1CCc2ccccc2C1` is 103% (inactive); for `COc1ccccc1-c1sc2ccccc2c1-c1ccc(OCCN2CCOCC2)cc1` it is 99.3% (inactive); for `Cc1ccc(C)c(N2CCN(C(=O)C3CCCN(c4ncnc5c4nc4n5CCCCC4)C3)CC2)c1` (stereo not drawn) it is 89.1% (inactive).
Consider `O=c1[nH]c(C2CCN(S(=O)(=O)c3ccccc3C(F)(F)F)CC2)nc2c1nnn2Cc1cccc(F)c1`, for which the fluorescence response, % of control is 83.7% (inactive).
Regarding `CC(CCc1ccccc1)NC(=O)c1ccc(NC(=O)c2cccc(Br)c2)cc1` (stereo not drawn), the fluorescence response, % of control was 88.6% (inactive).
For the compound `O=C(O)CCCN1C(=O)/C(=C\c2ccc(-c3nc4ccccc4s3)o2)SC1=S`, the fluorescence response, % of control is 288% (inactive).
Consider `Cc1ccc(C)c(Cn2nnc3c(=O)[nH]c(C4CCN(S(=O)(=O)c5ccc(S(=O)(=O)N(C)C)cc5)CC4)nc32)c1`, for which the fluorescence response, % of control is 119% (inactive).
As for `COc1ccc(/C=c2\s/c(=C/C(=O)c3ccc(C)cc3)[nH]c2=O)c(OC)c1`, the figure is 98.7% (inactive); as for `CCCCCCCCn1ccc(=N)cc1`, 102% (inactive); as for `Nc1cc2c(cc1C(=O)c1cccc(Br)c1)OCCO2`, 92.7% (inactive).
As for `Cc1ccc(CSC2=Nc3ccccc3C3=NC(CC(=O)NCc4ccco4)C(=O)N23)cc1` (stereo not drawn), the figure is 89% (inactive).
On to `Cc1nnc(N/N=C/c2cc([N+](=O)[O-])c(N3CCC(C)CC3)cc2N2CCC(C)CC2)n1N`, for which the fluorescence response, % of control was 97.1% (inactive).
As for `CCSc1cc(N2CCOCC2)nc(-c2ccccc2)n1`, the figure is 89.7% (inactive).
As for `CCC1Nc2ncnc(N3CCN(c4ccccn4)CC3)c2N(Cc2ccc(Br)cc2)C1=O` (stereo not drawn), the fluorescence response, % of control is 85.4% (inactive).
With `O=c1[nH]c(C2CCN(S(=O)(=O)c3ccccc3C(F)(F)F)CC2)nc2c1nnn2Cc1ccccc1`, the fluorescence response, % of control is 92.4% (inactive).
The figure for `O=C1c2cc(Cl)ccc2OC2(CCNCC2)C12CC(c1ccc(Cl)cc1)=NO2` (stereo not drawn) is 106% (inactive).
Turning to `CCCCCCCCCCOC(=O)Cn1c(COc2ccc(Cl)cc2)[n+](C)c2ccccc21`, the fluorescence response, % of control was 106% (inactive).
Consider `O=C(COC(=O)c1ccc(S(=O)(=O)N2CCCCC2)cc1)NCc1ccco1`, for which the fluorescence response, % of control is 91.7% (inactive).
Regarding `O=C1c2cc(Cl)ccc2OC2(CCNCC2)C12CC(c1ccccc1)=NO2` (stereo not drawn), the fluorescence response, % of control is 107% (inactive).
As for `Cc1ccc(-n2c(-c3ccc(Br)cc3)c[n+]3c2CCc2ccc4cccnc4c2-3)cc1`, the fluorescence response, % of control was 92.4% (inactive).
In the case of `O=C(C1CCC1)N1CCc2cc(S(=O)(=O)Nc3ccc4c(c3)OCCO4)ccc21`, the fluorescence response, % of control is 116% (inactive).
Consider `CCCCc1nnc(NC(=O)COc2ccc3c(C)cc(=O)oc3c2)s1`, for which the fluorescence response, % of control is 134% (inactive).
As to `COCCOC(=O)c1c(C)oc2ccc(NS(=O)(=O)c3ccc(F)cc3)cc12`, the fluorescence response, % of control is 90.9% (inactive).
`CC(C)n1cc(/C=N/NC(=O)COc2cccc3cccnc23)c2ccccc21`: the fluorescence response, % of control is 91.7% (inactive).
As to `COc1ncccc1C(=O)NC1CCCc2c1cnn2-c1cc(C)cc(C)c1` (stereo not drawn), the fluorescence response, % of control was 76.4% (inactive).
For the compound `O=C(CSc1nnc(Cc2cccs2)n1Cc1ccco1)Nc1cccc(Cl)c1`, the fluorescence response, % of control is 128% (inactive).
The figure for `O=[N+]([O-])c1cc(/C=N\Nc2ccccn2)ccc1Cl` is 96.1% (inactive).
On to `O=C(O)C(c1ccccc1)N1C(=O)/C(=C\c2ccc(O)c(O)c2)SC1=S` (stereo not drawn), for which the fluorescence response, % of control is 226% (inactive).
For the compound `COc1ccc(Cn2c(-c3ccccc3)nc3c(c(=O)c4ccccc4n3C)c2=O)cc1`, the fluorescence response, % of control is 102% (inactive).
The figure for `c1ccc(-c2ccc3c(c2)c2c4n3CCN=C4CCC2)cc1` is 138% (inactive).
As for `Cc1ccc(Cn2nnc3c(=O)[nH]c(C4CCN(S(=O)(=O)c5ccc(F)cc5)CC4)nc32)cc1`, the figure is 116% (inactive).
`Cc1c(NC(=O)c2ncn[nH]2)cccc1-c1nc2ccccc2s1`: the fluorescence response, % of control was 109% (inactive).
On to `CCCCCc1cc(=O)oc2c(C(CCN3CCCC(C)C3)c3ccc(N(C)C)cc3)c(OC)cc(OC)c12` (stereo not drawn), for which the fluorescence response, % of control was 94.5% (inactive).
As for `COC(=O)c1ccc(S(=O)(=O)NCc2ccc(OC)cc2)n1C`, the fluorescence response, % of control was 96.9% (inactive).
Consider `O=c1[nH]c(C2CCN(S(=O)(=O)c3ccc4c(c3)OCCO4)CC2)nc2c1nnn2Cc1ccc(F)cc1`, for which the fluorescence response, % of control was 94.5% (inactive).
Take `NC(=O)c1nc(-c2ccco2)nc2c1[nH]c(=O)n2-c1ccc(Cl)c(Cl)c1`: the fluorescence response, % of control is 112% (inactive).
For the compound `NC1=NC[C@H](Cc2ccccc2)N1CCCCC1CCCCC1`, the fluorescence response, % of control is 127% (inactive).
Take `Cc1ccc(Cn2nnc3c(=O)[nH]c(C4CCN(S(=O)(=O)c5ccccc5F)CC4)nc32)cc1`: the fluorescence response, % of control is 90.8% (inactive).
`CCOC(=O)c1ccc(S(=O)(=O)NNS(=O)(=O)c2ccc(C)cc2)cc1`: the fluorescence response, % of control was 112% (inactive).
In the case of `O=c1[nH]c(=S)[nH]c(O)c1/C=C1/C=c2ccccc2=N1`, the fluorescence response, % of control was 114% (inactive).
On to `CCSc1cc(N2CCCC2)nc(-c2ccc(C)cc2)n1`, for which the fluorescence response, % of control was 101% (inactive).
With `CC1Cc2cc(S(=O)(=O)NCc3ccccc3)ccc2N1C(=O)C1CCC1` (stereo not drawn), the fluorescence response, % of control was 89% (inactive).
On to `COc1cc2c(cc1OC)C(=O)N1[C@H]3c4cc(C)ccc4OC[C@@H]3[C@H](c3ccccc3)[C@]1(C)C(=O)N2`, for which the fluorescence response, % of control was 99.3% (inactive).
The figure for `COc1ccc(-c2nc3ccccc3c(=O)n2CCOc2cc(C)ccc2C)cc1` is 135% (inactive).
Turning to `CC(C)(C)C1CCC(OC(=O)C[N+]2(C)CCCC2)CC1` (stereo not drawn), the fluorescence response, % of control was 109% (inactive).
Consider `COc1ccc(C2CC(c3ccccc3C(F)(F)F)=NN2c2ccc(S(N)(=O)=O)cc2)cc1` (stereo not drawn), for which the fluorescence response, % of control is 106% (inactive).
The figure for `COc1cccc(CN(CC(=O)NCC2CCCO2)C(=O)CCC(=O)Nc2cc(C)on2)c1` (stereo not drawn) is 103% (inactive); for `CC(C)=C1C2CCC1C1C(=O)N(c3nc(-c4ccc(C(C)C)cc4)c(C)s3)C(=O)C21` (stereo not drawn) it is 111% (inactive).
As for `COc1ccc2[nH]c3c(C)c4cc[n+](C)cc4c(C)c3c2c1`, the figure is 153% (inactive).
In the case of `O=C(NC(=Nc1nc2ccccc2o1)NC(=O)c1ccccc1)c1ccccc1`, the fluorescence response, % of control was 102% (inactive).
The figure for `CCC(Sc1nc2ccsc2c(=O)n1Cc1ccc(C(=O)O)cc1)C(=O)Nc1ccc(C)c(Cl)c1` (stereo not drawn) is 81.2% (inactive).
With `O=C(c1cc(COc2cccc(C(F)(F)F)c2)on1)N1CCC(c2ccncc2)CC1`, the fluorescence response, % of control was 109% (inactive).
Regarding `Cc1ccc(OCc2cc(C(=O)NCC(C)(C)N3CCOCC3)no2)cc1C`, the fluorescence response, % of control was 116% (inactive).
Take `COc1cc(OC)cc(-c2sc3ccc(OC)cc3c2-c2ccc(OCCN3CCOCC3)cc2)c1`: the fluorescence response, % of control was 111% (inactive).
As to `COc1ccc(C(=O)NC2CCCc3c2cnn3-c2ccccc2F)o1` (stereo not drawn), the fluorescence response, % of control was 86.3% (inactive).
As for `CS(=O)(=O)Nc1ccc(C(=O)Nc2ccc3c(c2)OCCO3)cc1`, the fluorescence response, % of control was 95.7% (inactive).
As for `COc1ccc(CC(=O)Nc2ccc(NC(=O)c3ccc(Br)cc3)cc2)cc1OC`, the figure is 134% (inactive).
